Laboratory results: PMC7663799, “Endocytosis and Trafficking of Heparan Sulfate Proteoglycans in Triple-Negative Breast Cancer Cells Unraveled with a Polycationic Peptide” (International Journal of Molecular Sciences, 2020)

Assays:
[1] = test system: NT4 internalization in MDA-MB-231 cells; assay: Inhibition of NT4 internalization by pharmacological agents, confocal microscopy; type: cell-based, human; details: for reduction of NT4 internalization: ±13%
Description: (§1) MDA-MB-231 cells were plated at a density of 5 × 10^4 per well in 24-well plates with glass cover slides and maintained overnight at 37 °C, 5% CO2.
Cells were pretreated for 15 min with 1–10 μg/mL Chlorpromazine (Merck, Darmstadt, Germany), 25 μg/mL Nystatin (Merck), 80 μM Dynasore (Merck) and 50 µM Amiloride (Merck) at 37 °C and then incubated with 2 μM NT4-biotin and 0.5 μg/mL Streptavidin-Atto 488 in PBS-1% BSA at room temperature for 15 min. To study macropinocytosis in the presence of Amiloride, 5 mg/mL Rhodamine B isothiocyanate–Dextran in PBS-1% BSA (Merck) was incubated at room temperature for 15 min. Cells were then washed and grown in medium, with and without pharmacological agents, for 15 and 30 min at 37 °C to allow peptide internalization. After internalization, they were fixed with PBS-4% PFA and plasma membranes were stained with 2.5 μg/mL wheat germ agglutinin, Alexa Fluor 647 (Thermo Fisher Scientific) conjugate in PBS-1% BSA, incubated for 10 min at room temperature. Nuclei were stained with DAPI (0.5 μg/mL in PBS-1% BSA). Each step was followed by three washes in PBS.
Peptide binding was analyzed by confocal laser microscope (Leica TCS SP5) with 501 λ ex and 523 λ em for Atto 488, 633 λ ex and 660–680 λ em for Atto 647 and 364 λ ex and 458 λ em for DAPI. Images were single Z-planes for all channels used. All images were processed and quantified using the Leica Application Suite X program (LAS X) of the confocal laser microscope (Leica TCS SP5). The experiment was repeated at least three times and at least three different fields were acquired for each sample.

[2] = test system: MDA-MB-231 cells; assay: NT4 binding to plasma membrane and internalization, confocal immunofluorescence; type: cell-based, human; details: confocal microscopy
Description: as §1
Cells were incubated with 2 μM NT4-biotin and 0.5 μg/mL Streptavidin-Atto 488 in PBS-1% BSA at room temperature for 15 min, then washed and grown in medium for 5, 15 and 30 min at 37 °C to allow peptide internalization. They were then fixed with PBS-4% paraformaldehyde (PFA) and saturated with PBS-5% BSA 0.3%-Triton X-100. HS was stained using 1 µg/mL anti-heparan sulfate (10E4 epitope) (Amsbio, Abingdon, UK) in PBS-1% BSA for 1 h, followed by incubation with 1 μg/mL anti-mouse IgG Rhodamine Red-X (Thermo Fisher Scientific, Waltham, MA, USA). Nuclei were stained with DAPI (0.5 μg/mL in PBS-1% BSA). Each step was followed by three washes in PBS. Peptide binding was analyzed by confocal laser microscope (Leica TCS SP5) with 380 λ ex and 450–470 λ em, 501 λ ex and 523 λ em and 633 λ ex and 660–680 λ em for DAPI, Atto 488 and Atto 647, respectively. The experiment was repeated three times and three different fields were acquired for each sample.

[3] = test system: MDA-MB-231 cells; assay: 2D migration, in vitro wound-healing (scratch) assay; type: cell-based, human; details: 10 μM NT4 in complete medium, p = 0.0428, n = 2
Description: Cell migration was measured using an in vitro wound-healing assay. MDA-MB231 cells (5.25 × 10^4) were seeded on each side of a culture insert for live cell analysis (Ibidi, Munich, Germany). Inserts were placed in the wells of a 24-well plate and the cells were incubated at 37 °C and 5% CO2 to confluence. The inserts were removed with sterile tweezers to create a cell-free area of approximately 500 μm. The cells were treated with 10 μM NT4 peptide in complete medium and allowed to migrate in an appropriate incubator of a DMi8 (Leica Microsystems, Wetzlar, Germany) microscope. The same instrument was used to take pictures at time zero and every 5 min for 11 h.
The percentage of void area with respect to time 0 was determined using Tscratch. The time-lapse image stacks were also analyzed using ImageJ and the plug-in Chemotaxis and Migration Tool.

[4] = test system: CDC42-GTP; assay: G-LISA activation assay, CDC42; type: cell-based, human; details: starved MDA-MB-231
Description: Cells were seeded in six-well plates (5 × 10^5 cells per well) and maintained for 12 h in a CO2 incubator. To measure Rac-1, RhoA and CDC42 GTPases, they were treated with 10 µM NT4 in DMEM-0.1% BSA, serum-free, for 12 h at 37 °C and then incubated with 0.1 μg/mL hEGF (Cell Signaling) for 2 min for Rac-1 and CDC42 GTPases and for 5 min for RhoA GTPase. Cells were washed with cold PBS, lysed and processed for colorimetric G-LISA activation assays (Cytoskeleton, Denver, CO, USA), according to the manufacturer’s instructions. The activated forms of the G proteins were detected by incubation with specific primary antibody, followed by a secondary antibody conjugated with HRP and a detection reagent. The signal was read by measuring absorbance at 490 nm using a microplate reader. […]

[5] = test system: Rac1-GTP; assay: G-LISA activation assay, Rac1; type: cell-based, human; details: starved MDA-MB-231
Description: (§2) Cells were seeded in six-well plates (5 × 10^5 cells per well) and maintained for 12 h in a CO2 incubator. To measure Rac-1, RhoA and CDC42 GTPases, they were treated with 10 µM NT4 in DMEM-0.1% BSA, serum-free, for 12 h at 37 °C and then incubated with 0.1 μg/mL hEGF (Cell Signaling) for 2 min for Rac-1 and CDC42 GTPases and for 5 min for RhoA GTPase. Cells were washed with cold PBS, lysed and processed for colorimetric G-LISA activation assays (Cytoskeleton, Denver, CO, USA), according to the manufacturer’s instructions. The activated forms of the G proteins were detected by incubation with specific primary antibody, followed by a secondary antibody conjugated with HRP and a detection reagent. The signal was read by measuring absorbance at 490 nm using a microplate reader. The experiment was repeated three times.

[6] = test system: Rac-1-GTP; assay: Rac1 pulldown assay (GST-PAK1-PBD beads, immunoblot); type: cell-based, human; details: MDA-MB-231, no EGF
Description: Rac1 activity was measured by pulldown assay using the active Rac1 detection kit (Cell Signaling), according to the manufacturer’s instructions. Cells were seeded in six-well plates (5 × 10^5 cells per well) and maintained for 24 h in a CO2 incubator. Cells were washed with cold PBS and lysed. Protein lysates were centrifuged and the supernatant was collected in new tubes containing beads pre-coupled with GST–PAK1-PBD and incubated under rotation at 4 °C for 60 min. The beads were washed and the proteins bound to them were separated by SDS-PAGE. The amounts of active Rac1 were determined by immunoblot analysis. Signals were detected using a LAS4010 imaging system (GE Healthcare, Chicago, IL, USA).

[7] = test system: RhoA-GTP; assay: G-LISA activation assay, RhoA; type: cell-based, human; details: starved MDA-MB-231, n = 3
Description: as §2

[8] = test system: heparan sulfate chains; details: surface plasmon resonance; cited from earlier work
[9] = test system: MDA-MB231 cells; details: flow cytometry; cited from earlier work
Description: The peptide bound to the plasma membrane (Figure 1A), most was internalized in cells within 15–30 min (Figure 1B,C) and it was completely endocytosed within 1 h (Figure 1D). The antibody anti-HS clone 10E4 [20], the epitope of which includes an N-sulfated glucosamine r ...

[10] = test system: proteolytic enzymes; details: imparted by branched structure; cited from earlier work
Description: NT4 is a tetrabranched peptide obtained by synthesizing four copies of the 13-amino-acid sequence on a branched core of lysines. […] The peptide has already been tested in animal models of cancer and has shown good specificity for tumor versus healthy cells. It also countered the invasive ...

## N=C(N)NC(=O)c1nc(Cl)c(N)nc1N [Amiloride]
[1]; 50 µM amiloride pre-treatment, p = 0.0461
  impairment of NT4 internalization: more than 50%

## CN(C)CCCN1c2ccccc2Sc2ccc(Cl)cc21 [chlorpromazine]
[1]; chlorpromazine 1 μg/mL, n = 3, p = 0.0279
  reduction of NT4 internalization: 27%
[1]; chlorpromazine 10 μg/mL, n = 4, p = 0.0327
  reduction of NT4 internalization: 57%

## O=C(N/N=C/c1ccc(O)c(O)c1)c1cc2ccccc2cc1O [dynasore]
[1]; 80 μM dynasore, n = 6, p = 0.0043
  effect on NT4 internalization: no longer internalized NT4

## C[C@@H]1[C@H](O)[C@@H](C)/C=C/C=C/CC/C=C/C=C/C=C/C=C/C(O[C@H]2O[C@H](C)[C@@H](O)[C@H](N)[C@@H]2O)CC2O[C@](O)(CC(O)C(O)CCC(O)CC(O)CC(O)CC(=O)O[C@H]1C)CC(O)C2C(=O)O (some centres unmarked) [nystatin]
[1]; 25 μg/mL nystatin, 15 min, 2 μM NT4-biotin, n = 9, p = 0.0345
  inhibition of NT4 endocytosis: 60%

## (pyELYENKPRRPYIL)4K2K-beta-Ala [NT4]
[2]; 2 μM NT4-biotin + 0.5 μg/mL Streptavidin-Atto 488, 15 min RT in PBS-1% BSA, then medium at 37 °C
  time within which most of the peptide was internalized in cells: 15 to 30 min
[2]; 2 μM NT4-biotin + Streptavidin-Atto 488, 37 °C
  time within which the peptide was completely endocytosed: ≤ 1 h
[3]
  effect on MDA-MB-231 migration (gap closure in 8 h): slowed MDA-MB-231 migration
[4]; 10 µM NT4 12 h, no EGF
  effect on CDC42 activation without EGF: no effect on CDC42 activation
[4]; 10 µM NT4 12 h, then 0.1 μg/mL hEGF 2 min, n = 2
  effect on EGF-induced CDC42 activation: mitigates activation of CDC42 induced by the growth factor
[5]; 10 µM NT4 12 h, then 0.1 μg/mL hEGF 2 min
  effect on EGF-induced Rac1 activation: not significantly changed
[6]
  effect on basal levels of Rac-1-GTP: not affected
[7]; 10 µM NT4 12 h alone, without EGF
  reduction of RhoA (RhoA-GTP): 20%
[7]; EGF with NT4: 10 µM NT4 12 h, then 0.1 μg/mL hEGF 5 min
  reduction of RhoA (RhoA-GTP): 21%
[8]
  binding to heparan sulfate chains: bind heparan sulfate chains
[9]
  binding to MDA-MB231 cells: bind to MDA-MB231 cells
[10]
  stability against proteolytic enzymes: stability against proteolytic enzymes

## EGF: growth factor (hEGF, Cell Signaling) used to stimulate Rho GTPases
[4]; 0.1 μg/mL hEGF 2 min
  effect on CDC42-GTP: increased
[5]; 0.1 μg/mL hEGF 2 min
  effect on Rac1-GTP: transiently activated
[7]; 0.1 μg/mL hEGF 5 min alone
  reduction of RhoA (RhoA-GTP): 26%
